Structures can show the parent of a compound that is named as a salt. Where two headings read alike, the source gives them in different places.
Tests used:
[1] = cited from earlier work
[2] = Confirmatory laboratory extraction of a synthetic inhibitor/sugar mixture; type: physicochemical; conditions: 5 mL synthetic solution + 5 mL solvent, 20° C., HPLC
Description: In order to define a standardized method of comparing solvents, a new parameter called extraction yield was created. Extraction yield is a ratio of the concentration of a species in the extract to the concentration of that species in the feed. […].
Another parameter, the extraction score, was defined in order to rank overall inhibitor removal performance. Each extraction yield of inhibitors and sugars was multiplied by a weighting factor determined by the importance of removing or retaining the particular compound in the feed. The resulting numbers were then summed to calculate the extraction score.
The confirmatory extraction of a synthetic inhibitor/sugar mixture was next carried out using inhibitors and sugars to mimic the conditions in acid-pretreated cellulosic fermentation feed. The synthetic solutions contained 1 g/L each of formic acid, lactic acid, acetic acid, furfural, HMF and vanillin as well as 20 g/L of glucose and 60 g/L of xylose. Five mL of this synthetic solution and 5 mL of solvent were added to a test tube and the test tubes were shaken in a Lab Line Instruments (Mumbai, India) “MULTI-WRIST SHAKER” at a setting of 8 for 10 min at 20° C. The mixture was allowed to settle overnight to phase separate completely. Inhibitor concentrations in each phase were analyzed by an Agilent Technologies (Santa Clara, Calif.) 1100 HPLC system consisting of a quaternary gradient pump, autosampler, heated column compartment, and diode array absorbance detector. Gradient elution was done on a YMC Company Ltd. (Kyoto, Japan) “YMC Carotenoid S-5” (C30) column with 0.05% phosphoric acid and a solvent ramp of 0% acetonitrile/100% water to 90% acetonitrile/10% water and back over 32.5 minutes. Based on the measured concentration of each inhibitor and sugar, extraction yields and scores were calculated and shown in Table 1 and reported as “laboratory extraction yield” and “laboratory extraction score”; (see footnotes 2 and 3).

E. Coli, FBR-5 strain = test: Fermentation of extracted C5 fraction, sugar and ethanol by HPLC; type: cell-based, Escherichia coli
[3] = IUPAC-NIST Solubility Data Series / Yaws' Handbook
[4] = CE2 liquid/liquid solvent extraction (not membrane), 0 hrs
[5] = CE2 liquid/liquid solvent extraction (not membrane), 24 hrs
[6] = EX4 multilayer cross-flow MSE, 0 hrs
[7] = EX4 multilayer cross-flow MSE, 24 hrs
[8] = EX4 multilayer cross-flow MSE, 48 hrs

Row | laboratory extraction yield, Acetic acid [2] | laboratory extraction yield, Formic acid [2] | laboratory extraction yield, Furfural [2] | laboratory extraction yield, HMF [2] | laboratory extraction yield, Lactic acid [2] | laboratory extraction yield, Vanillin [2] | Compound | Water Solubility ([1]; literature values) | also measured
1 |  |  |  |  |  |  | CCCCCCCCCCCCCC [n-tetradecane] | 0.10 g/100 mL | 
2 |  |  |  |  |  |  | C1CCCCC1 [cyclohexane] | 0.0017 g/100 mL | 
3 |  |  |  |  |  |  | CCCCCCCCCCCC [n-dodecane] | 0.10 g/100 mL | 
4 |  |  |  |  |  |  | CCOC(C)=O [ethyl acetate, reference compound] |  | Water Solubility [1, 3]: 8.3 grams per 100 mL
5 | 0.361^3 | 0.239^3 | 0.728^3 | 0.360^3 | 0.180^3 | 0.931^3 | CCCCCCCCO [1-octanol] | 0.11 g/100 mL | 
6 |  |  |  |  |  |  | CC(C)OC(C)C [isopropyl ether] | 0.20 g/100 mL | 
7 | 0.351^3 | 0.234^3 | 0.917^3 | 0.647^3 | 0.137^3 | 0.700^3 | CC(=O)c1ccccc1 [Acetophenone] | 0.10 g/100 mL | 
8 | 0.352^3 | 0.213^3 | 0.669^3 | 0.337^3 | 0.112^3 | 0.918^3 | CCCCC(CC)CO (stereo not drawn) [2-ethyl-1-hexanol] |  | 
9 | 0.221^3 | 0.160^3 | 0.937^3 | 0.360^3 | 0.050^3 | 1.001^3 | CCCC(=O)OCC [ethyl butyrate] | 0.50 g/100 mL | 
10 | 0.321^3 | 0.130^3 | 0.895^3 | 0.310^3 | 0.030^3 | 0.931^3 | CCCCCCC(=O)CC [3-nonanone] | 0.010 g/100 mL | 
11 | 0.301^3 | 0.180^3 | 0.593^3 | 0.220^3 | 0.070^3 | 0.851^3 | CC(C)CC(O)CC(C)C [2,6-dimethyl-4-heptanol] | 0.045 g/100 mL | 
12 |  |  |  |  |  |  | CCCCC(C)O (stereo not drawn) [2-hexanol] | 0.35 g/100 mL | 
13 |  |  |  |  |  |  | CCCCCCCCCC [n-decane] | 0.10 g/100 mL | 
14 |  |  |  |  |  |  | CCCCCCCCN(CCCCCCCC)CCCCCCCC [Trioctylamine] | 0.10 g/100 mL | 
15 | 0.397^3 | 0.280^3 | 0.687^3 | 0.394^3 | 0.155^3 | 0.937^3 | CCCCCCC(C)O (stereo not drawn) [2-octanol] | 0.11 g/100 mL | 
16 |  |  |  |  |  |  | CCOCC [diethyl ether, reference compound] |  | Water Solubility [1, 3]: 6.9 grams per 100 mL
17 |  |  |  |  |  |  | CCCCCC [n-hexane] | 0.10 g/100 mL | 
18 |  |  |  |  |  |  | CCCN(CCC)CCC [tripropylamine] | 0.10 g/100 mL | 
19 |  |  |  |  |  |  | CCCCNCCCC [Dibutylamine] | 0.35 g/100 mL | 
20 |  |  |  |  |  |  | CCCCOC(=O)/C=C\C(=O)OCCCC [dibutyl maleate] |  | Ethanol (E. Coli, FBR-5 strain; [4]): 0 g/L; Sugar (E. Coli, FBR-5 strain; [4]): 45 g/L; Ethanol (E. Coli, FBR-5 strain; [5]): 20 g/L; Sugar (E. Coli, FBR-5 strain; [5]): 1 g/L; Ethanol (E. Coli, FBR-5 strain; EX3 single layer MSE, 0 hrs): 0 g/L; Sugar (E. Coli, FBR-5 strain; EX3 single layer MSE, 0 hrs): 51 g/L; Ethanol (E. Coli, FBR-5 strain; EX3 single layer MSE, 24 hrs): 19 g/L; Sugar (E. Coli, FBR-5 strain; EX3 single layer MSE, 24 hrs): 2 g/L
21 |  |  |  |  |  |  | CCCCCCCC/C=C\CCCCCCCCO [Oleyl alcohol] | 0.018 g/100 mL | 
22 |  |  |  |  |  |  | CCCCCCCC(C)=O [2-nonanone] | 0.050 g/100 mL | 
23 |  |  |  |  |  |  | C1CCC2CCCCC2C1 (stereo not drawn) [decahydronapthalene] | 0.002 g/100 mL | 
24 | 0.000^3 | 0.020^3 | 0.593^3 | 0.200^3 | 0.050^3 | 0.903^3 | CCCCCCCCCCCCO [1-dodecanol] |  | 

Row | Compound | laboratory extraction yield, Acetic acid [2] | laboratory extraction yield, Formic acid [2] | laboratory extraction yield, Furfural [2] | laboratory extraction yield, HMF [2] | laboratory extraction yield, Lactic acid [2] | laboratory extraction yield, Vanillin [2] | Water Solubility ([1]; literature values) | also measured
25 | CCCCCCCCCCO [1-decanol] | 0.281^3 | 0.180^3 | 0.666^3 | 0.280^3 | 0.120^3 | 0.911^3 | 0.10 g/100 mL | Ethanol (E. Coli, FBR-5 strain; [4]): 0 g/L; Sugar (E. Coli, FBR-5 strain; [4]): 48 g/L; Ethanol (E. Coli, FBR-5 strain; [5]): 23 g/L; Sugar (E. Coli, FBR-5 strain; [5]): 1 g/L; Ethanol (E. Coli, FBR-5 strain; EX3 single layer MSE, 0 hrs): 0 g/L; Sugar (E. Coli, FBR-5 strain; EX3 single layer MSE, 0 hrs): 48 g/L; Ethanol (E. Coli, FBR-5 strain; EX3 single layer MSE, 24 hrs): 20 g/L; Sugar (E. Coli, FBR-5 strain; EX3 single layer MSE, 24 hrs): 3 g/L; Ethanol (E. Coli, FBR-5 strain; [6]): 0 g/L; Sugar (E. Coli, FBR-5 strain; [6]): 50 g/L; Ethanol (E. Coli, FBR-5 strain; [7]): 12 g/L; Sugar (E. Coli, FBR-5 strain; [7]): 30 g/L; Ethanol (E. Coli, FBR-5 strain; [8]): 18 g/L; Sugar (E. Coli, FBR-5 strain; [8]): 12 g/L
26 | O=Cc1ccccc1 [benzaldehyde] | 0.301^3 | 0.200^3 | 1.114^3 | 0.841^3 | 0.070^3 | 1.392^3 | 0.01 g/100 mL | 

Source: US20130084614A1, “METHODS OF REMOVING INHIBITORS FROM CELLULOSIC BIOMASS AND PRODUCING ALCOHOLS” (3M INNOVATIVE PROPERTIES COMPANY, priority 2010, published 2013)
